One experiment has as its target Prothrombin (Rattus norvegicus, UniProt P18292). The experiment is described as follows: In vitro ability to inhibit the amidolytic activity of thrombin.
Experiment [1] relates to Rattus norvegicus. The experiment is described as follows: Tested for in vivo thrombin time in rat arterial thrombosis model. It is filed as functional.
Experiment [2] relates to Rattus norvegicus. Kind of experiment: Tested for in vivo activated partial thromboplastin time in rat arterial thrombosis model. It is filed as functional.
Experiment [3] concerns Rattus norvegicus. The experiment is described as follows: Tested for in vivo mean occlusion time in rat arterial thrombosis model. The format is functional.

Structures are written as SMILES.

Turning to `N=C(N)NCCCCNC(=O)C1CC[C@H]2CN(C(=O)CCc3ccccc3)CC(=O)N12` (some centres undefined), at Prothrombin, the Ki was found to be 900 nM. As to `N/C(=N\O)N1CCC(CNC(=O)[C@@H]2CC[C@H]3CN(S(=O)(=O)Cc4ccccc4)CC(=O)N32)CC1`, the TT in the experiment with Rattus norvegicus [1] was determined as 3.85 min. In the experiment on Rattus norvegicus [2], the APTT stood at 0.633 min. In addition, the MOT in the experiment with Rattus norvegicus [3] is 48 min. In turn, `Cc1cc(C(=N)N)ccc1CNC(=O)[C@@H]1CC[C@H]2CN(S(=O)(=O)Cc3ccccc3)CC(=O)N21` showed a TT in the experiment on Rattus norvegicus [1] of 6.55 min. At Prothrombin, this compound gave a Ki of 7 nM. The same compound displayed an APTT in the experiment with Rattus norvegicus [2] of 0.9 min. In addition, in the experiment on Rattus norvegicus [3], the MOT was determined as 46 min. The matching figures for `N=C(N)c1ccc(CNC(=O)[C@@H]2CC[C@H]3CN(S(=O)(=O)Cc4ccccc4)CC(=O)N32)cc1`: 7.58 min, 8 nM, 0.967 min and above 60 min. Regarding `N=C(N)NCCC[C@H](NC(=O)[C@@H]1CC[C@H]2CN(C(=O)CCc3ccccc3)CC(=O)N21)C(=O)c1nccs1`, at Prothrombin, the affinity, expressed as Ki, was 0.6 nM.

The compound `N/C(=N/O)c1ccc(CNC(=O)[C@@H]2CC[C@H]3CN(S(=O)(=O)Cc4ccccc4)CC(=O)N32)cc1` had a Ki at Prothrombin above 10000 nM. The same measure, in the same setting: for `N[C@H]1CC[C@H](CNC(=O)C2CC[C@H]3CN(S(=O)(=O)Cc4ccccc4)CC(=O)N23)CC1` (some centres undefined) the value was 100 nM; for `O=C(NC[C@H]1CC[C@H](NO)CC1)[C@@H]1CC[C@H]2CN(S(=O)(=O)Cc3ccccc3)CC(=O)N21`, 1100 nM; for `O=C(NCc1ccc2nc[nH]c2c1)[C@@H]1CC[C@H]2CN(S(=O)(=O)Cc3ccccc3)CC(=O)N21`, 1000 nM. On the same count and under the same terms, the figure for `N=C(N)N1CCC(CNC(=O)[C@@H]2CC[C@H]3CN(S(=O)(=O)Cc4ccccc4)CC(=O)N32)CC1` is 78 nM; for `N=C(N)N1CCC(CNC(=O)[C@@H]2CC[C@H]3CN(C(=O)CCc4ccccc4)CC(=O)N32)CC1` it is 180 nM.

The record behind these values is ChEMBL document CHEMBL1134153, “Novel bicyclic lactam inhibitors of thrombin: potency and selectivity optimization through P1 residues” (Bioorg Med Chem Lett, 2001).
